Laboratory results: article PMC9268013, “Design, Synthesis, and Biological Evaluation of N14-Amino Acid-Substituted Tetrandrine Derivatives as Potential Antitumor Agents against Human Colorectal Cancer” (Molecules, 2022)

Tests used:
Beclin-1 = assay: Western blot, Beclin-1 in HCT-15 cells; type: cell-based, human; conditions: HCT-15, increasing concentration, p < 0.01
Protocol: (§1) The protein levels in HCT-15 cells were evaluated via Western blot analysis. The cells were cultured in dishes (10^7 cells per dish) and incubated overnight at 37 °C, 0.625, 1.25, 2.5, and 5 μM of 16 was added in triplicate after 24 h of incubation. Then, the cells were harvested and lysed in Laemmli buffer (glycerol, 1M TRIS pH 6.8, 1% SDS, MQ H2O and 20% β-mercaptoethanol). The samples were boiled for 5 min at 95 °C, and the protein content was determined using a BCA kit. Equal amounts of 30 μg of sample were placed on a Tris/HCl gel and separated by SDS-PAGE electrophoresis. Then, the samples were transferred to a PVDF membrane (Milibo, Co., Ltd., Billyka, MA, USA) and blocked with 5% skimmed milk powder for 2 h. Diluted primary antibodies Bcl-2 (1:3000), Bax (1:10,000), caspase-3 (l:2000), p62 (1:1000), Beclin1 (1:1000), LC3 (1:2000), and β-actin (1:1000) were incubated overnight at 4 °C, followed by a horseradish peroxidase-conjugated goat anti-rabbit IgG secondary antibody (ProteinTech, China) for 2 h at room temperature. Then, immunoreactivity was developed with diaminobenzidine solution, and scanned and recorded by a gel imaging system (G:BOX Chemi XL1.4, Frederick, MD, USA).

[1] = tested on: human lung cancer cells (A549); assay: MTT antiproliferative assay, A549; type: cell-based
Protocol: (§2) Human lung cancer cell (A549,), human umbilical vein endothelial cells (HUVECs,), human colon cancer cell lines (HCT-15), human breast cancer cells (MCF-7), human liver cancer cells (HepG2), human pancreatic cancer cells (BxPC-3), and human hepatic cell line (L-02) were obtained from the Sichuan University. A549, HUVECs, and L-02 were cultured in DMEM medium (high glucose, HyClone, GE Healthcare, Sydney, Australia). Human colon cancer cell lines HCT-15, human pancreatic cancer cells […] BxPC-3 were cultured in RPMI-1640. Human breast cancer cells MCF-7 and human liver cancer cells HepG2 were cultured in MEM medium. All the mediums, including 10% fetal bovine serum (FBS, HyClone, GE Healthcare, Sydney, Australia) and 1% ampicillin/streptomycin, were used to culture the above cells at 37 °C in a humidified atmosphere (5% CO2 and 95% air).
(§3) The antiproliferative activity of the title compounds was determined using the MTT (3-(4,5-dimethylthiazol-2-yl)-2,5-diphenyltetrazolium bromide, Sigma-Aldrich, Saint Louis, MO, USA) assay on different cells. Cells lines were seeded into 96-well plates at a density of 2000 to 6000 cells/well. DMSO was used to dissolve the test compounds, and TET was used as a positive control. After 24 h, the test compounds were added at different concentrations (0.625, 1.25, 2.5, 5, 10, and 20 μM) and incubated at 37 °C for 72 h. MTT was added to each well at a final concentration of 0.5 mg/mL and incubated at 37 °C for 4 h. Then, 150 μL of DMSO was added to each well to dissolve the formazan crystals. The absorbance was measured at 570 nm by a microplate reader (ELX800UV, Bio-Tek, Windoski, VT, USA). All measurements were repeated at least three times under the same conditions. Graphpad Prism 8.0 was used to calculate the IC50 values.

HCT-15 cells [2] = assay: Flow cytometry Annexin V-FITC/PI apoptosis analysis; type: cell-based, human; conditions: 48 h
Protocol: HCT-15 cells were cultured in complete medium in six-well plates for 24 h, and […]. 2.5, 5 μM of 16 was added in triplicate for 48 h incubation. The cells were digested with trypsin without EDTA, washed twice with cold PBS, and resuspended in 500 μL binding buffer. The cell suspension was stained successively with 5 μL Annexin V-FITC and 5 μL PI (Keygen Biotech, Nanjing, China), and cultured for 15 min and 5 min in total dark, respectively. Afterwards, the percentages of apoptotic cells were determined by a flow cytometry. Data were analyzed by FlowJo software (Version 10, FlowJo, LLC, Ashland, OR, USA).

p62/SQSTM1 (P62) = assay: Western blot, p62/SQSTM1 in HCT-15 cells; type: cell-based, human; conditions: HCT-15, 1.25, 2.5, and 5 μM, concentration-dependent, p < 0.05
Protocol: as §1

[3] = Live/dead FDA/PI double staining, HUVEC; type: cell-based; conditions: human, HUVEC cells, read-out: Viable cell percentage
Protocol: HCT-15 or HUVEC cells were cultured in six-well plates for 24 h. The cells were washed with PBS and incubated with medium containing 0.625, 1.25, 2.5, 5, and 10 μM of 16 for 48 h. Afterwards, the medium was replaced, and the cells were washed twice with PBS, resuspended in the solution containing 100 μL FDA (0.02 mg/mL, Sigma, St. Louis, MO, USA) and 30 μL PI (0.02 mg/mL, Sigma, St. Louis, MO, USA), and treated in the dark at room temperature for 10 min. The cells were imaged with a fluorescence microscope (Nikon ECLIPSE TE2000-U, Tokyo, Japan).

[4] = tested on: human breast cancer cells (MCF-7); assay: MTT antiproliferative assay, MCF-7; type: cell-based
Protocol: as §2, §3

HCT-15 cells [5] = assay: Wound healing (migration) assay, HCT-15; type: cell-based, human; conditions: 24 h, control approximately 46%
Protocol: HCT-15 cells or HUVECs were seeded in six-well culture plates and allowed to grow to 80–90% confluence. Subsequently, a cell-free line was manually created by scratching the confluent cell monolayers with a 200 μL sterile pipette tip, and the detached cells were washed with PBS. The cells were then incubated with 10% FBS and different concentrations of 16 (0.625, 1.25, 2.5, 5, and 10 μM). Then, 24 h later, images of the same location were obtained using a microscope (Nikon ECLIPSE TE2000-U, Tokyo, Japan). Each experiment was carried out at least three times.

HCT-15 cells [6] = assay: Cell cycle analysis by flow cytometry; type: cell-based, human; conditions: HCT-15, 1.25, 2.5, and 5 μM, 24 h
Protocol: HCT-15 cells were cultured in six-well plates overnight at 37 °C. The cells were treated with 1.25, 2.5, 5 μM of 16 or DMSO and incubated for 24 h. Afterwards, the cells were harvested, and 70% ice cold ethanol was used to fix cells at 4 °C. Subsequently, the cells were centrifuged to remove the fixative solution, washed twice with PBS, and exposed to 500 μL of PI/RNase working solution (Keygen Biotech, Nanjing, China) at 4 °C for 30 min in the dark. The cell cycle distribution was analyzed by flow cytometry.

Bax/Bcl-2 = assay: Western blot, Bax/Bcl-2 in HCT-15 cells; type: cell-based, human; conditions: HCT-15, only at 5 μM, p < 0.05
Protocol: as §1

IC50 ([1]; 72 h): 1.19 ± 0.01 µM
IC50 ([1]; Homo sapiens, A549, 72 h): < 1.5 µM
IC50 ([4]; 72 h): 1.46 ± 0.13 µM
IC50 ([4]; Homo sapiens, MCF7, 72 h): < 1.5 µM
Structure (SMILES): COc1cc(NC(=O)[C@@H]2CCCN2)c2cc1Oc1ccc(cc1)C[C@H]1c3cc(c(OC)cc3CCN1C)Oc1c(OC)c(OC)cc3c1[C@H](C2)N(C)CC3 [Compound 16, 14-N-(L-proline)-tetrandrine]
Beclin-1 level (Beclin-1): markedly enhanced
Apoptotic rate (HCT-15 cells [2]; HCT-15, 2.5 μM): 25.4%
Apoptotic rate (HCT-15 cells [2]; HCT-15, 5 μM): 52.7%
Necrotic rate (HCT-15 cells [2]; HCT-15, 5 μM): 35.5%
P62 contents (p62/SQSTM1 (P62)): significantly lessened
viability at 48 h, 5 µM ([3]; 5 μM): 1.9%
viability at 48 h, 10 µM ([3]; 10 μM): 0.1%
Scratched area covered (migration rate) (HCT-15 cells [5]; HCT-15, 5 μM): 14.1%
Scratched area covered (migration rate) (HCT-15 cells [5]; HCT-15, 10 μM): 10.5%
Effect on cell cycle redistribution (HCT-15 cells [6]): no significant influence on cell cycle redistribution
Ratio of Bax/Bcl-2 (Bax/Bcl-2): enhanced
